The values that follow are results of earlier work, collected in US20080255132A1, “Combination Therapy Comprising the Use of Et-743 and Paclitaxel for Treating Cancer” (priority 2003, published 2008).

Data set [1] deals with sarcoma and breast and ovarian carcinoma. Conditions: phase I, 1-, 3-, 24-, 72-hour i.v. infusion and 1 hour daily x5 schedules.
For data set [2], the system named is human tumor xenografts, including melanoma and ovarian and breast carcinoma. Conditions: human tumor xenografts grown in athymic mice. On the technique in general: A xenograft is tissue or cells of one species grown in another, often human tumour cells in immunodeficient mice.

`COc1cc2c(cc1O)CCN[C@]21CS[C@@H]2c3c(OC(C)=O)c(C)c4c(c3[C@H](COC1=O)N1[C@@H]2[C@H]2c3c(cc(C)c(OC)c3O)C[C@@H]([C@@H]1O)N2C)OCO4` [ET-743, ecteinascidin 743]: in data set [1], the Responses result is on record as “Promising responses”. Moreover, the Antineoplastic activity entry in data set [2] is given as “potent antineoplastic activity”.
